Data taken from ChEMBL document CHEMBL1201862, “PubChem BioAssay data set” (2004).
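Cells were grown in 96-well plates and exposed to each compound for 48 hours at five concentrations; endpoints were interpolated linearly between bracketing concentrations, or set to the highest concentration if not reached. Abbreviation: GI50, concentration required for 50% inhibition of growth.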 The source made the active and inactive calls. Cut-off read from the data, not from the text of the source: active = GI50 up to about 1.1 µM and inactive = higher.

Assays:
Assay in all cases: NCI anticancer screen, dose series, 48 h
[1] = tested on: BT-549
[2] = tested on: CAKI-1
[3] = tested on: CCRF-CEM
[4] = tested on: DU-145
[5] = tested on: EKVX
[6] = tested on: HCC 2998
[7] = tested on: HT-29
[8] = tested on: M14
[9] = tested on: MCF7
[10] = tested on: MDA-N
[11] = tested on: MOLT-4
[12] = tested on: OVCAR-4
[13] = tested on: OVCAR-5
[14] = tested on: OVCAR-8
[15] = tested on: SF-539
[16] = tested on: SK-MEL-2
[17] = tested on: SK-OV-3
[18] = tested on: SNB-19
[19] = tested on: SR
[20] = tested on: UO-31

Structure (SMILES) | GI50 [1] | GI50 [2] | GI50 [3] | GI50 [4] | GI50 [5] | GI50 [6] | GI50 [7] | GI50 [8] | GI50 [9] | GI50 [10] | GI50 [11] | GI50 [12] | GI50 [13] | GI50 [14] | GI50 [15] | GI50 [16] | GI50 [17] | GI50 [18] | GI50 [19] | GI50 [20]
C=CCOc1ccccc1/N=N/C(C#N)=N\Nc1ccccc1OCC=C | > 100 µM (inactive) | > 100 µM (inactive) | > 100 µM (inactive) | > 100 µM (inactive) | > 100 µM (inactive) | 48.1 µM (inactive) | > 100 µM (inactive) | > 100 µM (inactive) | > 100 µM (inactive) | 27.2 µM (inactive) | > 100 µM (inactive) | > 100 µM (inactive) | > 100 µM (inactive) | > 100 µM (inactive) | > 100 µM (inactive) | > 100 µM (inactive) | > 100 µM (inactive) | > 100 µM (inactive) | > 100 µM (inactive) | > 100 µM (inactive)
CCCCCCCCCC[C@H](O)[C@H]1CC[C@@H]([C@@H](O)CC[C@H](O)[C@@H]2CCC(CCCCCCC[C@@H](O)CC3=C[C@H](C)OC3=O)O2)O1 (some centres not stated) | 5.08 µM (inactive) | 3.22 µM (inactive) | 1.11 µM (active) | 3.6 µM (inactive) | 1.89 µM (inactive) | 4.33 µM (inactive) | 1.73 µM (inactive) | 1.5 µM (inactive) | 1.49 µM (inactive) | 2.43 µM (inactive) | 2.92 µM (inactive) | 4.4 µM (inactive) | 3.49 µM (inactive) | 1.95 µM (inactive) | 1.79 µM (inactive) | 1.39 µM (inactive) | – | 1.61 µM (inactive) | 2.05 µM (inactive) | 0.00416 µM (active)
CCOC(=O)C12CCC(=O)N1N(C)c1ncccc1N2 (configuration not stated) | > 100 µM (inactive) | > 100 µM (inactive) | > 100 µM (inactive) | > 100 µM (inactive) | > 100 µM (inactive) | 77.4 µM (inactive) | > 100 µM (inactive) | > 100 µM (inactive) | > 100 µM (inactive) | > 100 µM (inactive) | > 100 µM (inactive) | > 100 µM (inactive) | > 100 µM (inactive) | > 100 µM (inactive) | > 100 µM (inactive) | < 0.01 µM (active) | > 100 µM (inactive) | > 100 µM (inactive) | > 100 µM (inactive) | > 100 µM (inactive)
CC(C)(C)OC(=O)C1CCC/C1=N/Nc1ccc([N+](=O)[O-])cc1[N+](=O)[O-] (configuration not stated) | 24.9 µM (inactive) | 39.4 µM (inactive) | 19.7 µM (inactive) | 47.2 µM (inactive) | 24.7 µM (inactive) | 42.9 µM (inactive) | 36.5 µM (inactive) | 39.6 µM (inactive) | 30 µM (inactive) | 30.8 µM (inactive) | 17.7 µM (inactive) | 74.5 µM (inactive) | 43.3 µM (inactive) | 27.5 µM (inactive) | – | – | 43 µM (inactive) | 41.5 µM (inactive) | 26.1 µM (inactive) | 17.6 µM (inactive)
CCOC(=O)C(NC(=O)OCc1ccccc1)C(=O)O (configuration not stated) | > 100 µM (inactive) | > 100 µM (inactive) | > 100 µM (inactive) | > 100 µM (inactive) | > 100 µM (inactive) | > 100 µM (inactive) | > 100 µM (inactive) | > 100 µM (inactive) | > 100 µM (inactive) | > 100 µM (inactive) | > 100 µM (inactive) | > 100 µM (inactive) | > 100 µM (inactive) | > 100 µM (inactive) | > 100 µM (inactive) | > 100 µM (inactive) | – | > 100 µM (inactive) | > 100 µM (inactive) | > 100 µM (inactive)
CCOC(=O)CCC(NC(=O)c1ccc(Oc2nc3ccccc3nc2C(=O)OCC)cc1)C(=O)OCC (configuration not stated) | > 100 µM (inactive) | > 100 µM (inactive) | > 100 µM (inactive) | > 100 µM (inactive) | > 100 µM (inactive) | > 100 µM (inactive) | > 100 µM (inactive) | > 100 µM (inactive) | > 100 µM (inactive) | > 100 µM (inactive) | > 100 µM (inactive) | > 100 µM (inactive) | > 100 µM (inactive) | 41.2 µM (inactive) | > 100 µM (inactive) | > 100 µM (inactive) | – | 85.5 µM (inactive) | > 100 µM (inactive) | > 100 µM (inactive)
S=c1nc(Nc2ccccc2)c2c3c(sc2[nH]1)CCCC3 | > 100 µM (inactive) | > 100 µM (inactive) | – | > 100 µM (inactive) | 2.32 µM (inactive) | > 100 µM (inactive) | > 100 µM (inactive) | – | > 100 µM (inactive) | > 100 µM (inactive) | > 100 µM (inactive) | > 100 µM (inactive) | > 100 µM (inactive) | > 100 µM (inactive) | – | > 100 µM (inactive) | – | > 100 µM (inactive) | 8.67 µM (inactive) | > 100 µM (inactive)
N#Cc1ccc(-c2nc3c(N)ncnc3o2)cc1 | > 100 µM (inactive) | > 100 µM (inactive) | > 100 µM (inactive) | > 100 µM (inactive) | > 100 µM (inactive) | > 100 µM (inactive) | > 100 µM (inactive) | > 100 µM (inactive) | > 100 µM (inactive) | > 100 µM (inactive) | > 100 µM (inactive) | – | > 100 µM (inactive) | > 100 µM (inactive) | > 100 µM (inactive) | > 100 µM (inactive) | – | > 100 µM (inactive) | > 100 µM (inactive) | > 100 µM (inactive)
N#C/C(=C\Nc1ccccn1)C(=O)c1ccco1 | > 100 µM (inactive) | > 100 µM (inactive) | – | > 100 µM (inactive) | > 100 µM (inactive) | > 100 µM (inactive) | > 100 µM (inactive) | > 100 µM (inactive) | > 100 µM (inactive) | > 100 µM (inactive) | 39.6 µM (inactive) | > 100 µM (inactive) | > 100 µM (inactive) | > 100 µM (inactive) | > 100 µM (inactive) | > 100 µM (inactive) | > 100 µM (inactive) | > 100 µM (inactive) | > 100 µM (inactive) | > 100 µM (inactive)
O=C1C(Cl)C(c2cccc(Cl)c2)N1c1ccc(-n2c(S)nc3ccccc3c2=O)cc1 (configuration not stated) | 39.4 µM (inactive) | 34.7 µM (inactive) | 23 µM (inactive) | 35.2 µM (inactive) | 32.1 µM (inactive) | 14.4 µM (inactive) | 18.8 µM (inactive) | 19.5 µM (inactive) | 14.7 µM (inactive) | 19.1 µM (inactive) | 14 µM (inactive) | 13.6 µM (inactive) | 24.9 µM (inactive) | 37.3 µM (inactive) | 20 µM (inactive) | – | 20.6 µM (inactive) | 2.47 µM (inactive) | 10.7 µM (inactive) | 20 µM (inactive)
CC1CNc2ccccc2N=C1NN (configuration not stated) | > 100 µM (inactive) | > 100 µM (inactive) | 22.7 µM (inactive) | > 100 µM (inactive) | > 100 µM (inactive) | > 100 µM (inactive) | > 100 µM (inactive) | > 100 µM (inactive) | > 100 µM (inactive) | > 100 µM (inactive) | – | > 100 µM (inactive) | > 100 µM (inactive) | > 100 µM (inactive) | > 100 µM (inactive) | > 100 µM (inactive) | > 100 µM (inactive) | > 100 µM (inactive) | > 100 µM (inactive) | > 100 µM (inactive)
O=C(O)C(Br)C(Br)c1ccccc1[N+](=O)[O-] (configuration not stated) | > 100 µM (inactive) | > 100 µM (inactive) | – | > 100 µM (inactive) | > 100 µM (inactive) | > 100 µM (inactive) | > 100 µM (inactive) | > 100 µM (inactive) | > 100 µM (inactive) | > 100 µM (inactive) | – | > 100 µM (inactive) | > 100 µM (inactive) | > 100 µM (inactive) | > 100 µM (inactive) | > 100 µM (inactive) | > 100 µM (inactive) | > 100 µM (inactive) | > 100 µM (inactive) | 5.46 µM (inactive)
COC(=N)CCCl | > 100 µM (inactive) | > 100 µM (inactive) | > 100 µM (inactive) | > 100 µM (inactive) | > 100 µM (inactive) | > 100 µM (inactive) | > 100 µM (inactive) | > 100 µM (inactive) | > 100 µM (inactive) | > 100 µM (inactive) | > 100 µM (inactive) | > 100 µM (inactive) | > 100 µM (inactive) | > 100 µM (inactive) | > 100 µM (inactive) | – | > 100 µM (inactive) | > 100 µM (inactive) | > 100 µM (inactive) | > 100 µM (inactive)
C[C@@]1(O)C2C3CC4C5C3C1[C@](O)(C42)[C@H]5Br (some centres not stated) | > 100 µM (inactive) | > 100 µM (inactive) | > 100 µM (inactive) | > 100 µM (inactive) | > 100 µM (inactive) | > 100 µM (inactive) | > 100 µM (inactive) | > 100 µM (inactive) | > 100 µM (inactive) | > 100 µM (inactive) | > 100 µM (inactive) | > 100 µM (inactive) | > 100 µM (inactive) | > 100 µM (inactive) | > 100 µM (inactive) | > 100 µM (inactive) | – | > 100 µM (inactive) | > 100 µM (inactive) | > 100 µM (inactive)
